From patent US7368424B2, “Acylated nonadepsipeptides” (AiCuris GmbH & Co. KG, priority 2003, dated 2008)
Values after ≈ are worked out from the molar mass of the structure shown. Read-outs that look alike come from different tables or passages of the source. *1 amine or outer side, *2 acyl side, *3 side chain or, on linkers, in order; H or OH if unused. Where a SMILES comes first, the peptide text is derived from it. Bridges are numbered along the chain shown (N, C = ends). [ ]: non-standard residue; d: D form. The star is where a group is joined. ξ: configuration not given here. Phe(3R-OH) = O=C([C@@H](N[*:1])[C@H](O[*:3])c1ccccc1)[*:2]; Phe(3,4-(OMe)2) = COc1ccc(C[C@H](N)C(=O)O)cc1OC; Asn(3S-OH) = NC(=O)[C@@H](O)[C@H](N)C(=O)O; Leu(3R-OH) = CC(C)[C@@H](O)[C@H](N)C(=O)O; Ala(SiMe3) = C[Si](C)(C)C[C@H](N)C(=O)O; d(tBuAla) = CC(C)(C)C[C@@H](N)C(=O)O; dPhe(2-F) = N[C@H](Cc1ccccc1F)C(=O)O; Ala(cPr) = N[C@@H](CC1CC1)C(=O)O; tBuAla = CC(C)(C)C[C@H](N)C(=O)O; 3Pal = N[C@@H](Cc1cccnc1)C(=O)O; aThr = C[C@H](O)[C@H](N)C(=O)O; ξIle = CC[C@H](C)C(N)C(=O)O; Ac6c = NC1(C(=O)O)CCCCC1; Bn = c1ccc(C*)cc1

What was measured:
[1] = tested on: Staphylococcus aureus 133; type: cell-based
Method: (§1) Determination of the Minimum Inhibitory Concentration (MIC):
(§2) The MIC is determined in the liquid dilution test in accordance with the NCCLS guidelines. Overnight cultures of Staphylococcus aureus 133, Enterococcus faecalis 27159, E. faecium 4147 and Streptococcus pneumoniae G9a are incubated with the desired test substances in a 1:2 dilution series. The MIC determination is carried out with a cell count of 10^5 microbes per ml in Isosensitest medium (Difco, Irvine/USA), with the exception of S. pneumoniae which is tested in BHI broth (Difco, Irvine/USA) with 10% bovine serum with a cell count of 10^6 microbes per ml. The cultures are incubated at 37° C. for 18-24 hours, S. pneumoniae in the presence of 10% CO2.
(§3) The MIC is defined as the lowest concentration of each substance at which visible bacterial growth no longer occurs. The MIC values are reported in μg/ml.

[2] = tested on: Streptococcus pneumoniae G9a; type: cell-based
Method: as §1, §2, §3

[3] = tested on: E. faecium L4001; type: cell-based, Enterococcus faecium
[4] = tested on: E. faecalis ICB 27159; type: cell-based, Enterococcus faecalis
Method: as §1, §2, §3

[5] = Isosensitest medium, 10^5 microbes per ml, 37° C., 18-24 hours
[6] = BHI broth with 10% bovine serum, 10^6 microbes per ml, 10% CO2, 37° C., 18-24 hours

SMILES	MIC S. aureus 133 [1]; 133	MIC S. pneumoniae ([2]; G9a)	MIC E. faecium L4001 ([3]; L4001)	MIC E. faecalis ICB 27159 ([4]; ICB 27159)	MIC S. aureus 133 [1, 5]	MIC S. pneumoniae [2, 6]	MIC E. faecium L4001 [3, 5]	MIC E. faecalis ICB 27159 [4, 5]
CC[C@H](C)[C@@H]1NC(=O)[C@@H](CCCNC(=N)N)NC(=O)[C@H](CC(C)C)NC(=O)[C@H]([C@H](O)C(C)C)NC(=O)[C@@H](NC(=O)[C@H](CC2CC2)NC(=O)[C@H](N)CC(C)C)[C@@H](c2ccccc2)OC(=O)[C@H](CO)NC(=O)[C@H]([C@H](O)C(N)=O)NC(=O)CNC(=O)[C@H]([C@H](C)O)NC1=O.O=C(O)C(F)(F)F.O=C(O)C(F)(F)F [Example 1, D-leucyl-N^1-{(3S,6S,12S,15S,18R,21S,24S,27S,28R)-6-[(1S)-2-amino-1-hydroxy-2-oxoethyl]-18-(3-{[amino(imino)methyl]amino}propyl)-12-[(1S)-1-hydroxyethyl]-3-(hydroxymethyl)-24-[(1R)-1-hydroxy-2-methylpropyl]-21-isobutyl-15-[(1S)-1-methylpropyl]-2,5,8,11,14,17,20,23,26-nonaoxo-28-phenyl-1-oxa-4,7,10,13,16,19,22,25-octaazacyclooctacosan-27-yl}-3-cyclopropyl-L-alaninamide bistrifluoroacetate] (H-[dL][Ala(cPr)][Phe(3R-OH)][Leu(3R-OH)]L[dR]I[aThr]G[Asn(3S-OH)]S; ester 3-C)	0.125 µg/mL	0.125 µg/mL	0.5 µg/mL	0.5 µg/mL	–	–	–	–
CC[C@H](C)[C@@H]1NC(=O)[C@@H](CCCNC(=N)N)NC(=O)[C@H](CC(C)C)NC(=O)[C@H]([C@H](O)C(C)C)NC(=O)[C@@H](NC(=O)[C@H](CC(C)C)NC(=O)[C@H](N)Cc2ccccc2F)[C@@H](c2ccccc2)OC(=O)[C@H](CO)NC(=O)[C@H]([C@H](O)C(N)=O)NC(=O)CNC(=O)[C@H]([C@H](C)O)NC1=O [Example 23, (2-Fluoro-D-phenylalanyl)-de(1-D-leucyl)lysobactin bistrifluoroacetate] (H-[dPhe(2-F)]L[Phe(3R-OH)][Leu(3R-OH)]L[dR]I[aThr]G[Asn(3S-OH)]S; ester 3-C)	0.125 µg/mL (≈ 0.0941 µM)	0.125 µg/mL (≈ 0.0941 µM)	0.5 µg/mL (≈ 0.376 µM)	1 µg/mL (≈ 0.753 µM)	–	–	–	–
CC[C@H](C)C1NC(=O)[C@@H](CCCNC(=N)N)NC(=O)[C@H](CC(C)C)NC(=O)[C@H]([C@H](O)C(C)C)NC(=O)[C@@H](NC(=O)[C@H](CC(C)(C)C)NC(=O)C2(N)CCCCC2)[C@@H](c2ccccc2)OC(=O)[C@H](CO)NC(=O)[C@H]([C@H](O)C(N)=O)NC(=O)CNC(=O)[C@H]([C@H](C)O)NC1=O.O=C(O)C(F)(F)F.O=C(O)C(F)(F)F (stereo partly drawn) [Example 105, N-[(1-Aminocyclohexyl)carbonyl]-(3-tert-butyl-D-alanyl)-de(1-D-leucyl-2-L-leucyl)lysobactin bistri-fluoroacetate] (H-[Ac6c][tBuAla][Phe(3R-OH)][Leu(3R-OH)]L[dR][ξIle][aThr]G[Asn(3S-OH)]S; ester 3-C)	–	–	–	–	0.5 µg/mL	0.063 µg/mL	0.5 µg/mL	1 µg/mL
CC[C@H](C)[C@@H]1NC(=O)[C@@H](CCCNC(=N)N)NC(=O)[C@H](CC(C)C)NC(=O)[C@H]([C@H](O)C(C)C)NC(=O)[C@@H](NC(=O)[C@H](CC(C)(C)C)NC(=O)[C@H](N)CC(C)C)[C@@H](c2ccccc2)OC(=O)[C@H](CO)NC(=O)[C@H]([C@H](O)C(N)=O)NC(=O)CNC(=O)[C@H]([C@H](C)O)NC1=O [Example 3, D-leucyl-N^1-{(3S,6S,12S,15S,18R,21S,24S,27S,-28R)-6-[(1S)-2-amino-1-hydroxy-2-oxoethyl]-18-(3-{[amino(imino)methyl]amino}propyl)-12-[(1S)-1-hydroxyethyl]-3-(hydroxymethyl)-24-[(1R)-1-hydroxy-2-methylpropyl]-21-isobutyl-15-[(1S)-1-methylpropyl]-2,5,8,11,14,17,20,23,26-nonaoxo-28-phenyl-1-oxa-4,7,10,13,16,19,22,25-octaazacyclooctacosan-27-yl}-3-tert-butyl-L-alaninamide bistrifluoroacetate] (H-[dL][tBuAla][Phe(3R-OH)][Leu(3R-OH)]L[dR]I[aThr]G[Asn(3S-OH)]S; ester 3-C)	0.125 µg/mL (≈ 0.0969 µM)	0.031 µg/mL (≈ 0.024 µM)	0.25 µg/mL (≈ 0.194 µM)	0.25 µg/mL (≈ 0.194 µM)	–	–	–	–
CC[C@H](C)[C@@H]1NC(=O)[C@@H](CCCNC(=N)N)NC(=O)[C@H](CC(C)C)NC(=O)[C@H]([C@H](O)C(C)C)NC(=O)[C@@H](NC(=O)[C@H](Cc2ccc(OC)c(OC)c2)NC(=O)[C@H](N)CC(C)(C)C)[C@@H](c2ccccc2)OC(=O)[C@H](CO)NC(=O)[C@H]([C@H](O)C(N)=O)NC(=O)CNC(=O)[C@H]([C@H](C)O)NC1=O [Example 86, 3-tert-Butyl-D-alanyl-3-(3,4-dimethoxyphenyl)-L-alanyl-de(1-D-leucyl-2-L-leucyl)lysobactin bistri-fluoroacetate] (H-[d(tBuAla)][Phe(3,4-(OMe)2)][Phe(3R-OH)][Leu(3R-OH)]L[dR]I[aThr]G[Asn(3S-OH)]S; ester 3-C)	–	–	–	–	0.25 µg/mL (≈ 0.181 µM)	0.125 µg/mL (≈ 0.0903 µM)	1 µg/mL (≈ 0.722 µM)	0.5 µg/mL (≈ 0.361 µM)
CC[C@H](C)[C@@H]1NC(=O)[C@@H](CCCNC(=N)N)NC(=O)[C@H](CC(C)C)NC(=O)[C@H]([C@H](O)C(C)C)NC(=O)[C@@H](NC(=O)[C@H](CC(C)C)NC(=O)[C@@H](N)C[Si](C)(C)C)[C@@H](c2ccccc2)OC(=O)[C@H](CO)NC(=O)[C@H]([C@H](O)C(N)=O)NC(=O)CNC(=O)[C@H]([C@H](C)O)NC1=O [Example 30, [3-(Trimethylsilyl)-L-alanyl]-de(1-D-leucyl)lysobactin bistrifluoroacetate] (H-[Ala(SiMe3)]L[Phe(3R-OH)][Leu(3R-OH)]L[dR]I[aThr]G[Asn(3S-OH)]S; ester 3-C)	0.25 µg/mL (≈ 0.191 µM)	0.25 µg/mL (≈ 0.191 µM)	0.5 µg/mL (≈ 0.383 µM)	1 µg/mL (≈ 0.765 µM)	–	–	–	–
CC[C@H](C)C1NC(=O)[C@@H](CCCNC(=N)N)NC(=O)[C@H](CC(C)C)NC(=O)[C@H]([C@H](O)C(C)C)NC(=O)[C@@H](NC(=O)[C@H](COCc2ccccc2)NC(=O)[C@H](N)CC(C)(C)C)[C@@H](c2ccccc2)OC(=O)[C@H](CO)NC(=O)[C@H]([C@H](O)C(N)=O)NC(=O)CNC(=O)[C@H]([C@H](C)O)NC1=O.O=C(O)C(F)(F)F.O=C(O)C(F)(F)F (stereo partly drawn) [Example 99, (3-tert-Butyl-D-alanyl-O-benzyl-L-seryl)-de(1-D-leucyl-2-L-leucyl)lysobactin bistrifluoroacetate] (H-[d(tBuAla)]S(Bn)[Phe(3R-OH)][Leu(3R-OH)]L[dR][ξIle][aThr]G[Asn(3S-OH)]S; ester 3-C)	0.25 µg/mL	–	0.063 µg/mL	0.063 µg/mL	–	≦0.063 μg/ml	–	–
CC[C@H](C)[C@@H]1NC(=O)[C@@H](CCCNC(=N)N)NC(=O)[C@H](CC(C)C)NC(=O)[C@H]([C@H](O)C(C)C)NC(=O)[C@@H](NC(=O)[C@H](Cc2cccnc2)NC(=O)[C@H](N)CC(C)(C)C)[C@@H](c2ccccc2)OC(=O)[C@H](CO)NC(=O)[C@H]([C@H](O)C(N)=O)NC(=O)CNC(=O)[C@H]([C@H](C)O)NC1=O [Example 69, 3-tert-Butyl-D-alanyl-3-(3-pyridyl)-L-alanyl-de(1-D-leucyl-2-L-leucyl)lysobactin tristrifluoroacetate] (H-[d(tBuAla)][3Pal][Phe(3R-OH)][Leu(3R-OH)]L[dR]I[aThr]G[Asn(3S-OH)]S; ester 3-C)	0.5 µg/mL (≈ 0.377 µM)	0.5 µg/mL (≈ 0.377 µM)	1 µg/mL (≈ 0.754 µM)	1 µg/mL (≈ 0.754 µM)	–	–	–	–
